The target of the assay is T1, FPRL1 (Homo sapiens, UniProt P25090).
T1 construct: expressed in transfected cells
T1 sequence (P25090 1-351): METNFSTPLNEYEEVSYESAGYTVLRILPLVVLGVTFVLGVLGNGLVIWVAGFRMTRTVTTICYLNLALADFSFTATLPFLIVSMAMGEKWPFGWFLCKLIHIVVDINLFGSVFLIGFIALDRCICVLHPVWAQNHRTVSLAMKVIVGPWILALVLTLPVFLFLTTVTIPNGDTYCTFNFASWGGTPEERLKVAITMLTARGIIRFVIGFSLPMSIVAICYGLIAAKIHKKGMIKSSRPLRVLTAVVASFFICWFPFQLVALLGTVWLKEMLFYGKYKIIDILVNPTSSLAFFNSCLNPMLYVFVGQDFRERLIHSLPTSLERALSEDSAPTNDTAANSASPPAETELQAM
Kind of assay: compound-induced calcium activity on FLIPR Tetra in CHO-Ga16 cells stably expressing FPRL1. The following applies: for FPRL1 (rel. eff.): relative efficacy; for EC50: tested 0.61 to 10,000 nM. It is filed as cell-based. The method, then: CHO-Ga16 cells stably expressing FPRL1 were cultured in (F12, 10% FBS, 1% PSA, 400 μg/ml geneticin and 50 μg/ml hygromycin) and HEK-Gqi5 cells stable expressing FPR1 were cultured in (DMEM high glucose, 10% FBS, 1% PSA, 400 μg/ml geneticin and 50 μg/ml hygromycin). In general, the day before the experiment, 18,000 cells/well were plated in a 384-well clear bottom poly-d-lysine coated plate. The following day the screening compound-induced calcium activity was assayed on the FLIPR^Tetra. The drug plates were prepared in 384-well microplates using the EP3 and the MultiPROBE robotic liquid handling systems. Compounds were tested at concentrations ranging from 0.61 to 10,000 nM. Results are expressed as EC50 (nM) and efficacy values.

Bounds are passed on as bounds.

On to `O=C(CN1C(=O)C2C(C1=O)C1CCC2C12CC2)Nc1ccc(Br)cc1` (stereo not shown) [Compound 1, N-(4-Bromophenyl)-2-(1,3-dioxooctahydro-2H-spiro[2-aza-4,7-methanoisoindole-8,1′-cyclopropan]-2-yl)acetamide], for which the “FPRL1 (rel. eff.)” value is “(0.9)” and the EC50 came out at 118 nM.

As for `CSc1ccc(NC(=O)CN2C(=O)C3C(C2=O)C2CCC3C23CC3)cc1` (stereo not shown) [Compound 2, 2-(1,3-dioxooctahydro-2H-spiro[2-aza-4,7-methanoisoindole-8,1′-cyclopropan]-2-yl)-N-[4-(methylthio)phenyl]acetamide], the “FPRL1 (rel. eff.)” value is “(1.0)” and the EC50 turned out to be 336 nM.

For the compound `O=C(CN1C(=O)C2C(C1=O)C1CCC2C12CC2)Nc1ccc(Cl)cc1` (stereo not shown) [Compound 3, N-(4-chlorophenyl)-2-(1,3-dioxooctahydro-2H-spiro[2-aza-4,7-methanoisoindole-8,1′-cyclopropan]-2-yl)acetamide], the “FPRL1 (rel. eff.)” value is “(1.0)” and the EC50 was determined as 2050 nM.

Turning to `CS(=O)(=O)c1ccc(NC(=O)CN2C(=O)C3C(C2=O)C2CCC3C23CC3)cc1` (stereo not shown) [Compound 4, 2-(1,3-dioxooctahydro-2H-spiro[2-aza-4,7-methanoisoindole-8,1′-cyclopropan]-2-yl)-N-[4-(methylsulfonyl)phenyl]acetamide], the “FPRL1 (rel. eff.)” value is reported as “(0.72)” and the EC50 was found to be 3460 nM.

On to `O=C(CN1C(=O)C2C(C1=O)C1CCC2C12CC2)Nc1ccc(I)cc1` (stereo not shown) [Compound 5, 2-(1,3-dioxooctahydro-2H-spiro[2-aza-4,7-methanoisoindole-8,1′-cyclopropan]-2-yl)-N-(4-iodophenyl)acetamide], for which the “FPRL1 (rel. eff.)” value is on record as “(0.86)” and the EC50 stood at 2650 nM.

Regarding `CCc1ccc(NC(=O)CN2C(=O)C3C(C2=O)C2CCC3C23CC3)cc1` (stereo not shown) [Compound 6, 2-(1,3-dioxooctahydro-2H-spiro[2-aza-4,7-methanoisoindole-8,1′-cyclopropan]-2-yl)-N-(4-ethylphenyl)acetamide], the “FPRL1 (rel. eff.)” value is on record as “(0.91)” and the EC50 came out at 1150 nM.

On to `CC(=O)c1ccc(NC(=O)CN2C(=O)C3C(C2=O)C2CCC3C23CC3)cc1` (stereo not shown) [Compound 7, N-(4-acetylphenyl)-2-(1,3-dioxooctahydro-2H-spiro[2-aza-4,7-methanoisoindole-8,1′-cyclopropan]-2-yl)acetamide], for which the “FPRL1 (rel. eff.)” value is recorded as “(0.63)” and the EC50 is 7830 nM.

For `O=C(CN1C(=O)C2C(C1=O)C1CCC2C12CC2)Nc1ccc(Cl)nc1` (stereo not shown) [Compound 8, N-(6-chloropyridin-3-yl)-2-(1,3-dioxooctahydro-2H-spiro[2-aza-4,7-methanoisoindole-8,1′-cyclopropan]-2-yl)acetamide], the “FPRL1 (rel. eff.)” value is given as “(0.86)” and the EC50 stood at 2510 nM.

Regarding `O=C(CN1C(=O)C2C(C1=O)C1CCC2C12CC2)Nc1ccc(F)cc1` (stereo not shown) [Compound 9, 2-(1,3-dioxooctahydro-2H-spiro[2-aza-4,7-methanoisoindole-8,1′-cyclopropan]-2-yl)-N-(4-fluorophenyl)acetamide], the “FPRL1 (rel. eff.)” value is “(0.9)” and the EC50 worked out at 2320 nM.

Turning to `COc1ccc(NC(=O)CN2C(=O)C3C(C2=O)C2CCC3C23CC3)cc1` (stereo not shown) [Compound 10, 2-(1,3-dioxooctahydro-2H-spiro[2-aza-4,7-methanoisoindole-8,1′-cyclopropan]-2-yl)-N-(4-methoxyphenyl)acetamide], the “FPRL1 (rel. eff.)” value is recorded as “(1.0)” and the EC50 is 267 nM.

As to `CC(C(=O)Nc1ccc(Br)cc1)N1C(=O)C2C(C1=O)C1CCC2C12CC2` (stereo not shown) [Compound 11, N-(4-bromophenyl)-2-(1,3-dioxooctahydro-2H-spiro[2-aza-4,7-methanoisoindole-8,1′-cyclopropan]-2-yl)propanamide], the “FPRL1 (rel. eff.)” value is “(0.93)” and the EC50 is more than 5000 nM.

For the compound `O=C(CN1C(=O)C2C(C1=O)C1C=CC2C12CC2)Nc1ccc(Br)cc1` (stereo not shown) [Compound 12, N-(4-bromophenyl)-2-(1,3-dioxo-1,3,3a,4,7,7a-hexahydro-2H-spiro[2-aza-4,7-methanoisoindole-8,1′-cyclopropan]-2-yl)acetamide], the “FPRL1 (rel. eff.)” value is on record as “(0.91)” and the EC50 is 812 nM.

Consider `O=C(CN1C(=O)C2CC=CCC2C1=O)Nc1ccc(Br)cc1` (stereo not shown) [N-(4-bromophenyl)-1,3,3a,4,7,7a-hexahydro-1,3-dioxo-2H-isoindole-2-acetamide, reference compound], for which the “FPRL1 (rel. eff.)” value was “(0.98)” and the EC50 was 395 nM.

With `O=C(CN1C(=O)C2C3C=CC(C3)C2C1=O)Nc1ccc(Br)cc1` (stereo not shown) [N-(4-bromophenyl)-1,3,3a,4,7,7a-hexahydro-1,3-dioxo-4,7-methano-2H-isoindole-2-acetamide, reference compound], the “FPRL1 (rel. eff.)” value is listed as “(0.90)” and the EC50 is 575 nM.

The values above are taken from patent US8440684B2, “Polycyclic pyrrolidine-2,5-dione derivatives as -formyl peptide receptor like-1 (FPRL-1) receptor modulators” (Allergan, Inc., priority 2011, dated 2013).
